How the values were obtained:
[1] = Partition coefficient, log P of the compound; assay type: physicochemical; details: octanol/water
Trypanosoma cruzi [2] = test: Antiparasitic activity against Trypanosoma cruzi MF epimastigotes after 7 days by nephelometry; assay type: functional, organism-based; details: 168 h
[3] = Ionisation constant, pKa of the compound; assay type: physicochemical
Trypanosoma cruzi [4] = test: Inhibition of oxygen uptake in Trypanosoma cruzi MF epimastigotes at 300 uM by polarography; assay type: functional
[5] = Effective permeability by HPLC-based PAMPA; assay type: ADME; details: read-out: permeability
[6] = Effective permeability by UV-based PAMPA; assay type: ADME; details: read-out: permeability
[7] = Ionisation constant, pKa corresponding to acid proton of […] benzimidazole ring; assay type: physicochemical
[8] = Ionisation constant, pKa corresponding to weak base of […] benzimidazole ring; assay type: physicochemical

| logP [1] | IC50 (Trypanosoma cruzi [2]) [µM] | pKa [3] | Papp [5] [×10⁻⁶ cm/s] | Papp [6] [×10⁻⁶ cm/s] | pKa [7] | pKa [8] | Structure (SMILES) | inhibition at 300 µM (Trypanosoma cruzi [4]) [%] |
| --- | --- | --- | --- | --- | --- | --- | --- | --- |
| 3.6 | 78 | 4.69 |  |  |  |  | O=C(c1ccc(Cl)cc1)n1c(-c2ccccc2[N+](=O)[O-])nc2ccccc21 |  |
| 3.2 | 64 | 4.71 |  |  |  |  | COc1ccc(C(=O)n2c(-c3ccccc3[N+](=O)[O-])nc3ccccc32)cc1 |  |
| 3.1 | 94 | 4.9 |  |  |  |  | O=C(c1ccccc1)n1c(-c2ccccc2[N+](=O)[O-])nc2ccccc21 | 20 |
| 2.2 | 117 |  | 8 | 12 | 11.4 | 5.69 | O=[N+]([O-])c1ccccc1-c1nc2ccccc2[nH]1 | 40 |
| 2.8 | 80 | 4.79 |  |  |  |  | O=C(c1ccc([N+](=O)[O-])cc1)n1c(-c2ccccc2[N+](=O)[O-])nc2ccccc21 |  |

Source: ChEMBL document CHEMBL1156548, “Determination and characterization of new benzimidazoles with activity against Trypanosoma cruzi by UV spectroscopy and HPLC” (Bioorg Med Chem, 2008)
